Reference: patent US4849410A, “Pseudopterosin and synthetic derivatives thereof” (The Regents of the University of California, priority 1987, dated 1989)

What was measured:
[1] = system: B16 melanoma; assay: Activity in mice bearing ip B16 melanoma; format: in vivo, female B6D2F1 mice
Procedure: Compound I was also evaluated for activity against solid tumors as follows:
One-half ml of a 10 percent (v:v) brei of tumor cells prepared from solid B16 melanoma or M5076 reticulum cell sarcoma was implanted ip in female B6D2F1 mice which were randomized to treatment groups of 8 animals each. Treatment was initiated 24 hours after tumer inoculation and was continued daily for 10 days (cisplatin was administered q4Dx4 on Days 1, 5, 9 and 13). Mice were monitored daily for 60 days, and the median day of death was determined compared to three groups of untreated controls to provide percent increase in lifespan (ILS). ILS values of greater than or equal to 50 percent represent biologically significant antitumor effects. Cisplatin was curative in M5076 with 6/8 tumor-free survivors on Day 60 at the top dose level.

[2] = system: Arachidonic Acid (A.A.) Induced Topical Inflammation of the Mouse Ear; assay: Arachidonic acid induced topical inflammation of the mouse ear; format: in vivo; details: A.A. 25.0 ug; 50.0 ug/ear
[3] = system: PMA induced swelling of the mouse ear; assay: Anti-Inflammatory Assay (systemic administration); format: in vivo, male Swiss Webster mice
Procedure: Anti-Inflammatory Assay (systemic administration)
2 ug PMA was applied in 25 ul of acetone to the inner surface of the left ear of male Swiss Webster mice (4 to 6 weeks old), the right ear is treated with acetone only. […] 200 minutes after PMA treatment, the mice were killed by cervical dislocation and both ears were cut off, punched with a #4 cork borer and weighed. The swelling induced by PMA was calculated as the increase in the weight of the left ear minus the right ear. The percent inhibition of edema was calculated as control-drug/control×100. […] ED50 values were estimated by the method of Litchfield and Wilcoxon.

[4] = system: P388 leukemia; assay: Evaluation in mice bearing ip P388 leukemia; format: in vivo, female B6D2F1 mice; details: for Increase to Lifespan / Median Survival Time / Weight Change Day 5 / Weight Change Day 9: Days 1-5
Procedure: Compound I was also evaluated in mice bearing P388 Leukemia as follows:
Compound I was administered to the mice as a solution by first dissolving it in N,N-dimethylacetamide, adding an equal volume of Cremophor EL and then 8 volumes of water. The drug concentration was such that the desired dose was delivered in a volume of 0.5 ml per mouse. Dilutions from the highest dose in a dose-response study were made by the addition of water so that organic component of the formulation decreased with dose reduction; the drug remained in solution.
10^6 P388 leukemia cells were implanted intraperitoneal in female B6D2F1 mice which were randomized to treatment groups of six animals each. Treatment was initiated 24 hours after tumor implantation and was continued daily for five days (Cisplatin was administered on Days 1 and 5 for the Group 1 mice). Mice were weighted as groups on Days 1, 5 and 9 to provide an indication of drug toxicity. Mice were monitored for survival daily for 45 days, and the median day of death was determined compared to three groups of untreated controls to provide percent increase in lifespan (ILS). ILS values of greater than or equal to 40 percent represent actual reduction in tumor cell burden during the course of treatment and are taken as indications of biologically significant antitumor effect.

[5] = system: phenyl-p-benzoquinone (PQ) writhing; assay: Phenyl-p-benzoquinone Assay for Analgesia; format: in vivo, mouse; details: for % Inhibition (writhing): s.q.

CC(C)=C[C@H]1C[C@H](C)[C@H]2CC[C@H](C)c3c(O[C@@H]4OC[C@@H](O)[C@H](O)[C@H]4O)c(O)c(C)c1c32 [Compound I, pseudopterosin A] was tested, and the “Increase to Lifespan” value ([1]; 6.48 mg/kg ip) was -2%, the “Median Survival Time” value ([1]; 6.48 mg/kg ip) was 21.5 days and the “Weight Change on Day 9” value ([1]; 6.48 mg/kg ip) was “+1.2 gm”. For the same molecule, the “Increase to Lifespan” value ([1]; 10.8 mg/kg ip) was -7%, the “Median Survival Time” value ([1]; 10.8 mg/kg ip) was 20.5 days and the “Weight Change on Day 9” value ([1]; 10.8 mg/kg ip) was “+1.0 gm”. The “Increase to Lifespan” value ([1]; 18 mg/kg ip) was -2%, the “Median Survival Time” value ([1]; 18 mg/kg ip) was 21.5 days and the “Weight Change on Day 9” value ([1]; 18 mg/kg ip) was “+0.9 gm”. For the same molecule, the “Increase to Lifespan” value ([1]; 30 mg/kg ip) was 11%, the “Median Survival Time” value ([1]; 30 mg/kg ip) was 24.5 days and the “Weight Change on Day 9” value ([1]; 30 mg/kg ip) was “+0.5 gm”. The “Increase to Lifespan” value ([1]; 50 mg/kg ip) was -4%, the “Median Survival Time” value ([1]; 50 mg/kg ip) was 21 days and the “Weight Change on Day 9” value ([1]; 50 mg/kg ip) was -0.4 gm. The antitumor activity ([1]; B16 melanoma) was “did not demonstrate significant antitumor activity”, the “Ear Weight Mean ± S.E.M.” value [2] was 13.33 ± 0.38 mg and the “% Inhibition (edema)” value ([3]; 6.25 mg/kg) was 0%. For the same molecule, the “% Inhibition (edema)” value ([3]; 12.5 mg/kg) was 24.4%, the “% Inhibition (edema)” value ([3]; 25 mg/kg) was 43.8% and the “% Inhibition (edema)” value ([3]; 50 mg/kg) was 46.5%. The “% Inhibition (edema)” value ([3]; 100 mg/kg) was 90.4%, the “Increase to Lifespan” value ([4]; Group 2, 7.9 mg/kg ip) was 10% and the “Median Survival Time” value ([4]; Group 2, 7.9 mg/kg ip) was 11 days. The “Weight Change Day 5” value ([4]; Group 2, 7.9 mg/kg ip) was “+1.1 gm”, the “Weight Change Day 9” value ([4]; Group 2, 7.9 mg/kg ip) was “+3.6 gm” and the “Increase to Lifespan” value ([4]; Group 2, 11.9 mg/kg ip) was 15%. For the same molecule, the “Median Survival Time” value ([4]; Group 2, 11.9 mg/kg ip) was 11.5 days, the “Weight Change Day 5” value ([4]; Group 2, 11.9 mg/kg ip) was “+0.7 gm” and the “Weight Change Day 9” value ([4]; Group 2, 11.9 mg/kg ip) was “+2.5 gm”. The “Increase to Lifespan” value ([4]; Group 2, 17.8 mg/kg ip) was 15%, the “Median Survival Time” value ([4]; Group 2, 17.8 mg/kg ip) was 11.5 days and the “Weight Change Day 5” value ([4]; Group 2, 17.8 mg/kg ip) was 0 gm. The “Weight Change Day 9” value ([4]; Group 2, 17.8 mg/kg ip) was “+2.8 gm”, the “Increase to Lifespan” value ([4]; Group 2, 26.7 mg/kg ip) was 25% and the “Median Survival Time” value ([4]; Group 2, 26.7 mg/kg ip) was 12.5 days. The “Weight Change Day 5” value ([4]; Group 2, 26.7 mg/kg ip) was -0.7 gm, the “Weight Change Day 9” value ([4]; Group 2, 26.7 mg/kg ip) was “+3.4 gm” and the “Increase to Lifespan” value ([4]; Group 2, 40 mg/kg ip) was 30%. The “Median Survival Time” value ([4]; Group 2, 40 mg/kg ip) was 13 days, the “Weight Change Day 5” value ([4]; Group 2, 40 mg/kg ip) was -2.1 gm and the “Weight Change Day 9” value ([4]; Group 2, 40 mg/kg ip) was “+2.2 gm”. For the same molecule, the “Increase to Lifespan” value ([4]; Group 2, 60 mg/kg ip) was 65%, the “Median Survival Time” value ([4]; Group 2, 60 mg/kg ip) was 16.5 days and the “Weight Change Day 5” value ([4]; Group 2, 60 mg/kg ip) was -3.2 gm. For the same molecule, the “Weight Change Day 9” value ([4]; Group 2, 60 mg/kg ip) was -0.5 gm, the “Increase to Lifespan” value ([4]; Group I, 1.5 mg/kg ip) was 27% and the “Median Survival Time” value ([4]; Group I, 1.5 mg/kg ip) was 14 days. For the same molecule, the “Weight Change Day 5” value ([4]; Group I, 1.5 mg/kg ip) was “+0.1 gm”, the “Weight Change Day 9” value ([4]; Group I, 1.5 mg/kg ip) was “+4.6 gm” and the “Increase to Lifespan” value ([4]; Group I, 3 mg/kg ip) was 27%. For the same molecule, the “Median Survival Time” value ([4]; Group I, 3 mg/kg ip) was 14 days, the “Weight Change Day 5” value ([4]; Group I, 3 mg/kg ip) was “+0.4 gm” and the “Weight Change Day 9” value ([4]; Group I, 3 mg/kg ip) was “+4.2 gm”. For the same molecule, the “Increase to Lifespan” value ([4]; Group I, 6 mg/kg ip) was 36%, the “Median Survival Time” value ([4]; Group I, 6 mg/kg ip) was 15 days and the “Weight Change Day 5” value ([4]; Group I, 6 mg/kg ip) was “+0.7 gm”. For the same molecule, the “Weight Change Day 9” value ([4]; Group I, 6 mg/kg ip) was “+2.9 gm”, the “Increase to Lifespan” value ([4]; Group I, 12 mg/kg ip) was 45% and the “Median Survival Time” value ([4]; Group I, 12 mg/kg ip) was 16 days. The “Weight Change Day 5” value ([4]; Group I, 12 mg/kg ip) was -2.6 gm, the “Weight Change Day 9” value ([4]; Group I, 12 mg/kg ip) was “+1.3 gm” and the “Increase to Lifespan” value ([4]; Group I, 24 mg/kg ip) was 82%. The “Median Survival Time” value ([4]; Group I, 24 mg/kg ip) was 20 days, the “Weight Change Day 5” value ([4]; Group I, 24 mg/kg ip) was “+0.4 gm” and the “Weight Change Day 9” value ([4]; Group I, 24 mg/kg ip) was -0.6 gm. The maximally tolerated dose ([4]; a daily dose in this range, from weight loss) was about 60 mg/kg/day, the “activity in mice bearing intraperitoneal P388 leukemia” value ([4]; mouse, in vivo, ip) was “demonstrated reproducible activity” and the “activity in mice bearing intraperitoneal P388 leukemia” value ([4]; second group, 60 mg/kg/day) was “significant activity”. For the same molecule, the “activity in mice bearing intraperitoneal P388 leukemia” value ([4]; second group, dose similar to 24 mg/kg/day) was “ineffective”, the ED50 ([5]; 50% inhibition of writhing, n = 10 mice/dose) was 4.22 mg/kg and the “% Inhibition (writhing)” value ([5]; 2.0 mg/kg) was 29%. For the same molecule, the “% Inhibition (writhing)” value ([5]; 3.5 mg/kg) was 46%, the “% Inhibition (writhing)” value ([5]; 5.0 mg/kg) was 38% and the “% Inhibition (writhing)” value ([5]; 7.5 mg/kg) was 79%. For the same molecule, the “% Inhibition (writhing)” value ([5]; 10 mg/kg) was 73% and the “% Inhibition (writhing)” value ([5]; 20 mg/kg) was 96%.
